Structures are written as SMILES.

One series has as its system recombinant NL4-3 virus. Kind of series: HIV cell culture assay (antiviral activity, luciferase readout in infected MT-2 cells). In kind it is cell-based. Conditions: Human immunodeficiency virus 1, NL43, MT2. A digest of the protocol: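 MT-2 cells infected for 4-5 days with 293T-derived NL4-3 reporter virus (nef partly replaced by Renilla luciferase) in serial compound dilutions. Live-cell luciferase read-out. EC50 from median effect equation fit.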

Series [1] can be described thus: Compound cytotoxicity, XTT-based colorimetric assay. Conditions: human; uninfected MT2 cells, day 4, XTT assay. Format: cell-based. Summed up: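 Follows the antiviral assay procedure, but with uninfected MT2 cells. On day 4, cell viability is measured by XTT-based colorimetry, giving CC50 values.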

With `Cn1nc(NS(C)(=O)=O)c2c(Cl)ccc(-n3c([C@H](Cc4cc(F)cc(F)c4)NC(=O)Cn4nc(C(F)F)c5c4C(F)(F)[C@@H]4C[C@H]54)nc4nc(OCC(F)(F)C(F)(F)C(F)(F)F)ccc4c3=O)c21` (atropisomer, axis not shown; (P)) [Example 39, N-((S)-1-((3P,3P)-3-(4-chloro-1-methyl-3-(methylsulfonamido)-1H-indazol-7-yl)-7-(2,2,3,3,4,4,4-heptafluorobutoxy)-4-oxo-3,4-dihydropyrido[2,3-d]pyrimidin-2-yl)-2-(3,5-difluorophenyl)ethyl)-2-((3bS,4aR)-3-(difluoromethyl)-5,5-difluoro-3b,4,4a,5-tetrahydro-1H-cyclopropa[3,4]cyclopenta[1,2-c]pyrazol-1-yl)acetamide], the EC50 with recombinant NL4-3 virus amounted to 0.122 nM. Besides, the CC50 at 4 day in series [1] was greater than 100 nM.

Take `Cn1nc(NS(C)(=O)=O)c2c(Cl)ccc(-n3c([C@H](Cc4cc(F)cc(F)c4)NC(=O)Cn4nc(C(F)F)c5c4C(F)(F)[C@@H]4C[C@H]54)nc4nc(OCC(F)(F)C(F)(F)C(F)(F)C(F)(F)F)ccc4c3=O)c21` (atropisomer, axis not shown; (P)) [Example 40, N-((S)-1-((3P,3P)-3-(4-chloro-1-methyl-3-(methylsulfonamido)-1H-indazol-7-yl)-7-((2,2,3,3,4,4,5,5,5-nonafluoropentyl)oxy)-4-oxo-3,4-dihydropyrido[2,3-d]pyrimidin-2-yl)-2-(3,5-difluorophenyl)ethyl)-2-((3bS,4aR)-3-(difluoromethyl)-5,5-difluoro-3b,4,4a,5-tetrahydro-1H-cyclopropa[3,4]cyclopenta[1,2-c]pyrazol-1-yl)acetamide]: the EC50 in the series with recombinant NL4-3 virus is 0.31 nM. For the same compound, the CC50 at 4 day in series [1] was greater than 100 nM.

On to `Cn1nc(NS(C)(=O)=O)c2c(Cl)ccc(-n3c([C@H](Cc4cc(F)cc(F)c4)NC(=O)Cn4nc(C5CC5)c5c4C(F)(F)[C@@H]4C[C@H]54)nc4nc(OCC(F)(F)C(F)(F)F)ccc4c3=O)c21` (atropisomer, axis not shown; (P)) [Example 41, N-((S)-1-((3P, 3P)-3-(4-chloro-1-methyl-3-(methylsulfonamido)-1H-indazol-7-yl)-4-oxo-7-(2,2,3,3,3-pentafluoropropoxy)-3,4-dihydropyrido[2,3-d]pyrimidin-2-yl)-2-(3,5-difluorophenyl)ethyl)-2-((3bS,4aR)-3-cyclopropyl-5,5-difluoro-3b,4,4a,5-tetrahydro-1H-cyclopropa[3,4]cyclopenta[1,2-c]pyrazol-1-yl)acetamide], for which, in the series on recombinant NL4-3 virus, the EC50 was found to be 0.043 nM. The CC50 at 4 day in series [1] is greater than 100 nM.

As for `Cn1nc(NS(C)(=O)=O)c2c(Cl)ccc(-n3c([C@H](Cc4cc(F)cc(F)c4)NC(=O)Cn4nc(C(F)F)c5c4C(F)(F)[C@@H]4C[C@H]54)nc4nc(OCC5CC5(F)F)ccc4c3=O)c21` (stereo partly drawn) [Example 33, N-((1S)-1-((3P)-3-(4-chloro-1-methyl-3-(methylsulfonamido)-1H-indazol-7-yl)-7-((2,2-difluorocyclopropyl)methoxy)-4-oxo-3,4-dihydropyrido[2,3-d]pyrimidin-2-yl)-2-(3,5-difluorophenyl)ethyl)-2-((3bS,4aR)-3-(difluoromethyl)-5,5-difluoro-3b,4,4a,5-tetrahydro-1H-cyclopropa[3,4]cyclopenta[1,2-c]pyrazol-1-yl)acetamide], the EC50 with recombinant NL4-3 virus is 0.037 nM. The compound also registered a CC50 at 4 day in series [1] greater than 100 nM.

For `Cn1nc(NS(C)(=O)=O)c2c(Cl)ccc(-n3c([C@H](Cc4cc(F)cc(F)c4)NC(=O)Cn4nc(C(F)F)c5c4C(F)(F)[C@@H]4C[C@H]54)nc4nc(OCCOC5CC5(F)F)ccc4c3=O)c21` (stereo partly drawn) [Example 34, N-((1S)-1-((3P,3P)-3-(4-chloro-1-methyl-3-(methylsulfonamido)-1H-indazol-7-yl)-7-(2-(2,2-difluorocyclopropoxy)ethoxy)-4-oxo-3,4-dihydropyrido[2,3-d]pyrimidin-2-yl)-2-(3,5-difluorophenyl)ethyl)-2-((3bS,4aR)-3-(difluoromethyl)-5,5-difluoro-3b,4,4a,5-tetrahydro-1H-cyclopropa[3,4]cyclopenta[1,2-c]pyrazol-1-yl)acetamide], the EC50 with recombinant NL4-3 virus was determined as 0.035 nM. The CC50 at 4 day in series [1] was greater than 100 nM.

For `Cn1nc(NS(C)(=O)=O)c2c(Cl)ccc(-n3c([C@H](Cc4cc(F)cc(F)c4)NC(=O)Cn4nc(C(F)F)c5c4C(F)(F)[C@@H]4C[C@H]54)nc4nc(OCCC5CC5(F)F)ccc4c3=O)c21` (stereo partly drawn) [Example 38, N-((1S)-1-((3P,3P)-3-(4-chloro-1-methyl-3-(methylsulfonamido)-1H-indazol-7-yl)-7-(2-(2,2-difluorocyclopropyl)ethoxy)-4-oxo-3,4-dihydropyrido[2,3-d]pyrimidin-2-yl)-2-(3,5-difluorophenyl)ethyl)-2-((3bS,4aR)-3-(difluoromethyl)-5,5-difluoro-3b,4,4a,5-tetrahydro-1H-cyclopropa[3,4]cyclopenta[1,2-c]pyrazol-1-yl)acetamide], the EC50 with recombinant NL4-3 virus stood at 0.037 nM. The compound also registered a CC50 at 4 day in series [1] greater than 100 nM.

The term EC50 denotes the concentration at which the effect is half-maximal. One may read the CC50 as the concentration at which the toxic effect on the cells reaches its halfway point.

These data come from patent publication US20230355626A1, “INHIBITORS OF HUMAN IMMUNODEFICIENCY VIRUS REPLICATION” (VIIV HEALTHCARE UK (NO.5) LIMITED, priority 2020, published 2023).
